Key:
AtT-20 cells = assay: Cytotoxicity towards AtT-20 cells (PrestoBlue viability assay); settings: 25 μM, 24-hour exposure
Text: The AtT-20 cells viability was monitored in the conditions used to follow ACTH secretion. The viability of treated cells was concomitantly evaluated using a Cell Viability Reagent (monitoring of the cells' reducing capacity) (PrestoBlue® assay, Molecular Probes) with the aim to determine non-toxic doses of cell treatment.
After the collection of the supernatant sample for the ACTH assay in the previous step, cells were supplemented with the PrestoBlue™ cell viability reagent (Invitrogen™ A13261) at 10% final volume, and re-incubated at 37° C. for 30 minutes. Fluorescence was then read with a FLUOstar OPTIMA microplate reader.

AtT-20 pituitary cells = assay: Inhibition of ACTH secretion in pituitary cells (ACTH EIA on supernatant); format: cell-based, mouse; settings: 25 μM, 24-hour treatment; for activity at 25 µM: read-out: ACTH secretion % of control (DMSO) at 25 μM
Protocol: ACTH release (percent comparison to DMSO control). Briefly, 12,500 AtT-20 cells per well were seeded in a 96-well plate. After 24 hours exposure, cells were treated with each compound at the indicated final concentration, or with DMSO alone (control condition compound solvent) or with corticotropin releasing factor (indicated CRF) at 100 nM. After a 24-hour treatment, cell supernatants were collected and stored at −80° C., prior to quantification of ACTH concentration using ACTH chemiluminescent EIA kit (Phoenix Pharmaceuticals, Inc.). Determination of ACTH concentrations was based on the best-fitting ACTH standard curve and P values were calculated using one-way ANOVA, using Prism 9 software (GraphPad Software, Inc.) ns (P=0.12). **P<0.002. ***P<0.001. All compounds were tested in technical triplicates. One representative experiment out of three is presented.
FIG. 4: illustrates a decrease of ACTH secretion by AtT-20 cells after 24-hour treatment of halogenated salicylanilides. 12,500 AtT-20 cells per well were seeded in a 96-well plate. […] After a 24-hour treatment, cell supernatants were collected and stored at −80° C., prior to quantification of ACTH concentration using ACTH chemiluminescent EIA kit (Phoenix Pharmaceuticals, Inc.). Determination of ACTH concentrations was based on the best-fitting ACTH standard curve and P values were calculated by ordinary one-way ANOVA using Prism 6 software (GraphPad Software, Inc), ns (not significant), **** P<0.0001. Compounds were tested in technical triplicates.
12,500 AtT-20 cells per well were seeded in a 96-well plate. After 24 hours, cells were treated with compounds (corresponding chemical formula are indicated in Table 1) at 25 μM final concentration, or with DMSO alone (compound solvent). After a 24-hour treatment, cell supernatants were collected and stored at −80° C., prior to quantification of ACTH concentration using ACTH chemiluminescent EIA kit (Phoenix Pharmaceuticals, Inc.). Determination of ACTH concentrations was based on the best-fitting ACTH standard curve and P values were calculated by ordinary one-way ANOVA using Prism 6 software (GraphPad Software, Inc), ns (not significant), *P<0.05, ***P<0,0001. Compounds were tested in technical triplicates.
Mouse AtT-20 pituitary cell line were used as a powerful and well-characterized model to monitor ACTH secretion using an enzyme immunoassay (EIA) kit.
Mouse AtT-20 cells were obtained from the American Type Culture Collection and maintained on DMEM containing 10% fetal bovine serum, 100 μg/mL streptomycin and 100 U/mL penicillin at 37° C. with 5% CO2 after recovery from long-term storage on liquid nitrogen-vapor phase.
The ACTH secretion levels of AtT-20 cell culture was monitored on the supernatant of AtT-20 cells treated or not by increasing doses of compounds belonging to the family of halogenated salicylanilides chemicals.
1.25×10^4 AtT20 cells were seeded on polylysine-coated 96-well culture vessels on 150 μL of complete medium. After 24 hours, cells were treated with stock compounds to a final DMSO concentration of 0.5%. After 24 hours of treatment, cell culture supernatant was collected, cleared for 10 min at 1000×g at 4° C., diluted or not in assay buffer (Phoenix Peptide ACTH EIA EK-001-21) and frozen at −80° C. for subsequent processing according to the instructions of the kit's manufacturer.

[1] = target: T1, Full length USP8 (USP8FL) (Homo sapiens, UniProt P40818); assay: USP8FL (full length USP8) enzymatic inhibition, Ub-Rhodamine 110 hydrolysis in L-cysteine buffer; format: biochemical; settings: USP8 FL 75 nM, Ub-Rho 0.1 μM, L-cysteine buffer; read-out: USP8FL inhbition IC50 [μM] (CI: Confidence Interval)
T1 construct: purchased BostonBiochem E-520
T1 sequence (P40818 1-1118): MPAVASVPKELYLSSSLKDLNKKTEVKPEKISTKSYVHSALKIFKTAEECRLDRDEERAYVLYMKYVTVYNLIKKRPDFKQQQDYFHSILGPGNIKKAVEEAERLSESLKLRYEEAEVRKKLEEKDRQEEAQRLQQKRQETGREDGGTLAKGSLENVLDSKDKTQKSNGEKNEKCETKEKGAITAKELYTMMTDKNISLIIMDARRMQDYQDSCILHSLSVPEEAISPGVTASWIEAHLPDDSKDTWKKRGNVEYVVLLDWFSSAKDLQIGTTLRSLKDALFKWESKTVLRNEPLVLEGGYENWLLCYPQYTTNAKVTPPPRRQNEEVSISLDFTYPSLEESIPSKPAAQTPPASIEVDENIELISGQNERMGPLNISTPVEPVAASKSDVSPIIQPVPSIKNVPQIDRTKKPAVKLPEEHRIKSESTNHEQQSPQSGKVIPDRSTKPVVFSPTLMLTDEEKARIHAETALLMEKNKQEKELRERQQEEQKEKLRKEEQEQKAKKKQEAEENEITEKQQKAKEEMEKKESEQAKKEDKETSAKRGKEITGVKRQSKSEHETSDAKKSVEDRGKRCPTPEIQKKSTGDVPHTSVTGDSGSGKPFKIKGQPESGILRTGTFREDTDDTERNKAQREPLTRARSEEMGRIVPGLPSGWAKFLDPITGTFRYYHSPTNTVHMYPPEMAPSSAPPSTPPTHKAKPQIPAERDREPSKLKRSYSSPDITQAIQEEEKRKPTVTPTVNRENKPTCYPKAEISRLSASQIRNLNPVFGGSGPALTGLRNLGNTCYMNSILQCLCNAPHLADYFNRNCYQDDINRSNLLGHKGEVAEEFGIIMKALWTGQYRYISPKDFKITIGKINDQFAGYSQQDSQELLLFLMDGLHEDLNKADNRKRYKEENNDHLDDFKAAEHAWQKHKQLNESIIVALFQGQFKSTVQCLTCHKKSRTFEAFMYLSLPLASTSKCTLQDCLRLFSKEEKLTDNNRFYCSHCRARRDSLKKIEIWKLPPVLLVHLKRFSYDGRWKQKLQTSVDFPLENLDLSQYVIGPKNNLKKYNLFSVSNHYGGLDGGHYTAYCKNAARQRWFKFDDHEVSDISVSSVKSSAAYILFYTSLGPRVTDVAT
Protocol: USP8 FL (USP8 Full Length) was incubated at a concentration of 75 nM in the presence of Ub-Rho (UBIQUIGENT ref. 60-0117-050) at a final concentration of 0.1 μM, in conditions ensuring linearity of enzyme activity throughout the assay in a specific buffer. Compounds were added to the reaction mix at different doses just before the substrate. The enzymatic reaction kinetics were monitored by measuring fluorescence elicited by the hydrolysis of Ub-Rho over 30 min.
In this setup, an in-house purified catalytic domain of USP8 (USP8CD) was used at a concentration of 80 nM in the presence of the artificial substrate Ubiquitin-Rhodamine 110 (Ub-Rho) (ref: 60-0117-050 Ubiquigent) at a final concentration of 0.1 μM, in conditions ensuring linearity of enzyme activity throughout the assay incubation time. Enzymatic assay was performed in a Tris HCl buffer (40 mM Tris HCl pH 7.4, Ovalbumine 0.5 mg/ml, Cysteine HCl 5.5 mM). Compounds to be tested were added to the reaction mix and incubated with enzyme for 20 min, before the substrate. The enzymatic reaction kinetics were monitored by measuring fluorescence elicited by the hydrolysis of the peptidyl Ub-Rho over 30 minutes. The negative control was the solvent DMSO at 1%.
Full length USP8 (USPBFL) (BostonBiochem ref. E-520) were used at a concentration of 75 nM in the presence of a ubiquitin substrate, i.e., the Ub-Rhodamine 110 (Ub-Rho) (Ubiquigent ref. 60-0117-050) at a final concentration of 0.1 μM. Enzymatic assays were performed as described for USP8-CD except that USP-FL was used at a concentration of 75 nM. The compounds were used at a final concentration of 0.1, 1, 5, 10, 50 and 100 μM in DMSO 0.5%. The USP8 catalytic activity was monitored both before adding the substrate (TO) and after twenty minutes of incubation at room temperature (Final Time TF). The enzymatic reaction kinetics were monitored by measuring fluorescence elicited by the hydrolysis of the Ub-Rho bound over 30 minutes.

[2] = Mus musculus, AtT20, AtT-20 supernatant

Row | SMILES | AtT-20 cell viability (PrestoBlue assay) % of control (DMSO) at 25 μM Mean (SD) (AtT-20 cells) | inhibition of ACTH at 25 μM, in words (FIG. 4, FIG. 5) (AtT-20 pituitary cells) | activity at 25 µM (AtT-20 pituitary cells; [2]) [%] | IC50 [1] [µM] | ACTH secretion % of control (DMSO) at 25 μM (AtT-20 pituitary cells; AtT-20 supernatant) [%] | inhibition at 25 µM (AtT-20 pituitary cells; Mus musculus, AtT20, p<0.05) [%]
1 | O=C(Nc1ccc(O)cc1)c1cc(I)ccc1O [Z69118571] | 106.7 (20.87) % | ineffective | 101 | > 100 | – | –
2 | O=C(Nc1ccc(Cl)cc1C(=O)c1ccccc1F)c1ccc(=O)[nH]c1 [Z220328740] | 102.9 (15.16) % | ineffective | – | > 40 | 82 | –
3 | O=C(CSc1ccccc1F)Nc1cccc(OCc2ccccn2)c1 [Z393438700] | 101.1 (16.04) % | ineffective | 92 | > 40 | – | –
4 | O=C(NCc1cccc(OCc2ccccn2)c1)c1csc(Br)c1 [Z424433412] | 98.93 (14.69) % | ineffective | 80 | > 40 | – | 20
5 | Cc1ccc(NC(=O)Cn2ccccc2=O)c(OCc2ccccc2)c1 [Z738998144] | 95.98 (15.33) % | ineffective | 90 | > 40 | – | –
